The values that follow come from the NIST ThermoML archive (doi:10.1016/j.jct.2017.05.041).

For the data set the following is noted: 293 K; 101.33 kPa; Crystal; X-ray diffraction.

± gives the expanded uncertainty stated by the source.

As usually defined, the mass density is mass per unit of volume. Turning to `NCC1(CC(=O)O)CCCCC1.O` [2-(1-(aminomethyl)cyclohexyl)acetic acid monohydrate], the mass density was found to be 1210 ± 12 kg/m3.
As for `NCC1(CC(=O)O)CCCCC1` [2-(1-(aminomethyl)cyclohexyl)acetic acid], the mass density worked out at 1239 ± 10 kg/m3.
